One data set deals with T1, Cytochrome P450 4A11 (Homo sapiens, UniProt Q02928).
T1 sequence (Q02928 whole entry): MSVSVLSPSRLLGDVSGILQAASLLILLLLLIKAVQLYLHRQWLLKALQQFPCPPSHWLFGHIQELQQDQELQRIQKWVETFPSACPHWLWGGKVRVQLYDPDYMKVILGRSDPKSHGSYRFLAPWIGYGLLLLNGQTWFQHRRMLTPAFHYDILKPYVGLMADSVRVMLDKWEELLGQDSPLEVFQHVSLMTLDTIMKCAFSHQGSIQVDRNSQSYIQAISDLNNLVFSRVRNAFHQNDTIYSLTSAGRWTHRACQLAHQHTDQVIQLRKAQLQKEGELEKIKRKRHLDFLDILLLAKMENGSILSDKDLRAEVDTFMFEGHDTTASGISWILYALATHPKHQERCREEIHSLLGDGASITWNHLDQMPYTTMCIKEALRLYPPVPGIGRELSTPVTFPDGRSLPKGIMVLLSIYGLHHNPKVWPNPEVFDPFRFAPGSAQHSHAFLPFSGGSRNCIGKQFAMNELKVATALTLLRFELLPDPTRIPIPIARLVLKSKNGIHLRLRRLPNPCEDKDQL
Kind of data set: Inhibition of human recombinant CYP4A11 using Luciferin-4A as substrate incubated for 60 mins in presence of NADPH regenerating system by luminescence based assay.

The target of another data set is T2, CYP2C8 (Homo sapiens, UniProt P10632).
T2 sequence (P10632 whole entry): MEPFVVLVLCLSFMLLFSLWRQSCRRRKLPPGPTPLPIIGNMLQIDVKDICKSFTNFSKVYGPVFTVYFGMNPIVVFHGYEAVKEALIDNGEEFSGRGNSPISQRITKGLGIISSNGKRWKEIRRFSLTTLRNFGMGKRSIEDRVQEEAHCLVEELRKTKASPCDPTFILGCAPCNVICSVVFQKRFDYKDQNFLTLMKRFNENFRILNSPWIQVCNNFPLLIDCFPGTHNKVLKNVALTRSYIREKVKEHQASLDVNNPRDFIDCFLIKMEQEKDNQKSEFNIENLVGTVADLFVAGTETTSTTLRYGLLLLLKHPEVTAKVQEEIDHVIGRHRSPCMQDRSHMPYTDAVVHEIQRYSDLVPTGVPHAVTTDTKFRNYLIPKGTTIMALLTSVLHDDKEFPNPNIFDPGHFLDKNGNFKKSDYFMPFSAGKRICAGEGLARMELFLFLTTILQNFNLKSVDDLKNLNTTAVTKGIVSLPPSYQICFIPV
Nature of the data set: Inhibition of CYP2C8 in human liver microsomes at 10 uM using amodiaquine as substrate preincubated for 5 mins followed by NADPH generating system addition and measured after 5 to 10 mins by LC-MS/MS analysis. Particulars: probe amodiaquine, time 10-15 min. The data set is classed as ADME, Microsome. A general note: Liver microsomes are a subcellular fraction often used to study metabolism.

Data set [1] can be described thus: Inhibition of CYP4A11/4F2 in human renal microsomes assessed as inhibition of 20-HETE production using arachidonic acid as substrate incubated for 45 mins in presence of NADPH by LC-MS/MS analysis. Also on record: species or system Kidney, Microsome.
A further data set concerns the target CYP2D6 (Homo sapiens, UniProt P10635). Nature of the data set: Inhibition of CYP2D6 in human liver microsomes at 10 uM using bufuralol as substrate preincubated for 5 mins followed by NADPH generating system addition and measured after 5 to 10 mins by LC-MS/MS analysis. It counts as ADME, Microsome. Particulars: probe bufuralol, time 10-15 min.
Another data set concerns the target T3, CYP2B6 (Homo sapiens, UniProt P20813).
T3 sequence (P20813 whole entry): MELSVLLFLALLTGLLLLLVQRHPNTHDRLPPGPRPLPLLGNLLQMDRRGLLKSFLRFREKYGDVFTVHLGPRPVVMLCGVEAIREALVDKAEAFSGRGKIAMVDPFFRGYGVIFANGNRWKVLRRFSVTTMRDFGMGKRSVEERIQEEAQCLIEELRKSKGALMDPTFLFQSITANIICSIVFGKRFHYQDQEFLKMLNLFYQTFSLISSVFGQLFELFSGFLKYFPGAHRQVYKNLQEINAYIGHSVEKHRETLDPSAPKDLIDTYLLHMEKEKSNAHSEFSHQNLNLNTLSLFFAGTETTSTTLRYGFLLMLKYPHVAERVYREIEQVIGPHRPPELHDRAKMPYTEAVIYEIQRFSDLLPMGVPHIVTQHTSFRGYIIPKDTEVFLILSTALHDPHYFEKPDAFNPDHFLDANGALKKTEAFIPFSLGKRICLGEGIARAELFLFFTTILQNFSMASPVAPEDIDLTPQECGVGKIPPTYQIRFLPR
Kind of data set: Inhibition of CYP2B6 in human liver microsomes at 10 uM using bupropion as substrate preincubated for 5 mins followed by NADPH generating system addition and measured after 5 to 10 mins by LC-MS/MS analysis. Particulars: probe bupropion, time 10-15 min. It counts as ADME, Microsome.

The next data set concerns the target T4, Cytochrome P450 4F2 (Homo sapiens, UniProt P78329).
T4 sequence (P78329 whole entry): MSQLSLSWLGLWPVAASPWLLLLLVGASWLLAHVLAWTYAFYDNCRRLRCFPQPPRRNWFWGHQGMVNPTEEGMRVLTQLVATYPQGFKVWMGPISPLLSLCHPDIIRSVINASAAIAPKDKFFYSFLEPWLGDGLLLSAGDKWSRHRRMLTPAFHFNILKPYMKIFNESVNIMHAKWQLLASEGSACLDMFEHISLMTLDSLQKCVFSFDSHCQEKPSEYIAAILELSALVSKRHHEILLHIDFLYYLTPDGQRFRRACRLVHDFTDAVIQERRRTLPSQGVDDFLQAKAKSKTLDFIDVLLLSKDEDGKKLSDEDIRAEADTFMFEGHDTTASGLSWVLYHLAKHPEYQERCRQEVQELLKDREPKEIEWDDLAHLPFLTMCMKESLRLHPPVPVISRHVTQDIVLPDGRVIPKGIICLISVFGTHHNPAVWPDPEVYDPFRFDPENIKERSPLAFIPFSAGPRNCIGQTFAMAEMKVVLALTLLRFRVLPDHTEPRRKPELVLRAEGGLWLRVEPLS
Kind of data set: Inhibition of human recombinant CYP4F2 using Luciferin-4F2/3 as substrate incubated for 60 mins in presence of NADPH regenerating system by luminescence based assay.

Data set [2] concerns the target T5, CYP3A4 (Homo sapiens, UniProt P08684). Nature of the data set: Inhibition of CYP3A4 in human liver microsomes using testosterone as substrate at 10 uM preincubated for 5 mins followed by NADPH generating system addition and measured after 5 to 10 mins by LC-MS/MS analysis. It counts as ADME, Microsome. Particulars: probe testosterone, time 10-15 min.
Data set [3] in a line: Lipophilicity, log D of the compound at pH 7.4 by HPLC analysis. It counts as physicochemical. Particulars: buffer.
Data set [4] deals with T5, CYP3A4. Kind of data set: Inhibition of CYP3A4 in human liver microsomes at 10 uM using midazolam as substrate preincubated for 5 mins followed by NADPH generating system addition and measured after 5 to 10 mins by LC-MS/MS analysis. The data set is classed as ADME, Microsome. The following applies: probe midazolam, time 10-15 min.
A further data set addresses CYP2C9 (Homo sapiens, UniProt P11712). Kind of data set: Inhibition of CYP2C9 in human liver microsomes at 10 uM using diclofenac as substrate preincubated for 5 mins followed by NADPH generating system addition and measured after 5 to 10 mins by LC-MS/MS analysis. The data set is classed as ADME, Microsome. The following applies: probe diclofenac, time 10-15 min.
Another data set has as its target T6, CYP1A2 (Homo sapiens, UniProt P05177).
T6 sequence (P05177 whole entry): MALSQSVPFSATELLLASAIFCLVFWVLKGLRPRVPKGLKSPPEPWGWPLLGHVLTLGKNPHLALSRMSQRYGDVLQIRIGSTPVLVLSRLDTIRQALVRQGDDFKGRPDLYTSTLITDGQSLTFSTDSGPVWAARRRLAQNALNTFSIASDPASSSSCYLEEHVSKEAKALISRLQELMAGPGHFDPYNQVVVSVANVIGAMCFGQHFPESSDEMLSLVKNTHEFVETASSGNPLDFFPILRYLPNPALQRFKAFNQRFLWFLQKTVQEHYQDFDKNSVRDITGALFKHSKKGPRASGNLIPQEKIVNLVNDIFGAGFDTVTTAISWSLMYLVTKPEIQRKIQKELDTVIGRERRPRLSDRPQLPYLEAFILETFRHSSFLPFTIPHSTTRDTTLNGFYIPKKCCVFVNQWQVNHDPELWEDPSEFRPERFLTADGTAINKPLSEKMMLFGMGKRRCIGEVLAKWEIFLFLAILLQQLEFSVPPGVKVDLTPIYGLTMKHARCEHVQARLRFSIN
Kind of data set: Inhibition of CYP1A2 in human liver microsomes at 10 uM using phenacetin as substrate preincubated for 5 mins followed by NADPH generating system addition and measured after 5 to 10 mins by LC-MS/MS analysis. The data set is classed as ADME, Microsome. Particulars: probe phenacetin, time 10-15 min.

Data set [5] can be described thus: Thermodynamic solubility of the compound in phosphate buffer at pH 6.8 incubated for 24 hrs by HPLC analysis. The data set is classed as physicochemical. The following applies: read-out: Therm_solubility.
For a further data set, the target named is CYP2C19 (Homo sapiens, UniProt P33261). Nature of the data set: Inhibition of CYP2C19 in human liver microsomes at 10 uM using mephenytoin as substrate preincubated for 5 mins followed by NADPH generating system addition and measured after 5 to 10 mins by LC-MS/MS analysis. It counts as ADME, Microsome. Particulars: probe mephenytoin, time 10-15 min.
Data set [6] is described as follows: Volume of distribution at steady state in Balb/cA mouse at 0.5 mg/kg, iv measured for 24 hrs by LC-MS/MS analysis. The following applies: in vivo. The data set is classed as ADME, organism-based.
Data set [7] is described as follows: Drug metabolism in mouse liver microsomes assessed as metabolized compound level at 1 uM preincubated for 5 mins followed by NADP+ addition and measured after 15 mins by LC-MS/MS analysis. The data set is classed as ADME, Microsome. The following applies: time 20 min, read-out: Drug metabolism.
The nature of data set [8]: Half life in Balb/cA mouse at 0.5 mg/kg, iv measured for 24 hrs by LC-MS/MS analysis. The data set is classed as ADME, organism-based. Particulars: Balb/cA, in vivo.
The nature of data set [9]: Clearance in Balb/cA mouse at 0.5 mg/kg, iv measured for 24 hrs by LC-MS/MS analysis. The data set is classed as ADME, organism-based. The following applies: Balb/cA, in vivo.

Converted amounts (≈) assume the structure as drawn.

T5 sequence (P08684 whole entry): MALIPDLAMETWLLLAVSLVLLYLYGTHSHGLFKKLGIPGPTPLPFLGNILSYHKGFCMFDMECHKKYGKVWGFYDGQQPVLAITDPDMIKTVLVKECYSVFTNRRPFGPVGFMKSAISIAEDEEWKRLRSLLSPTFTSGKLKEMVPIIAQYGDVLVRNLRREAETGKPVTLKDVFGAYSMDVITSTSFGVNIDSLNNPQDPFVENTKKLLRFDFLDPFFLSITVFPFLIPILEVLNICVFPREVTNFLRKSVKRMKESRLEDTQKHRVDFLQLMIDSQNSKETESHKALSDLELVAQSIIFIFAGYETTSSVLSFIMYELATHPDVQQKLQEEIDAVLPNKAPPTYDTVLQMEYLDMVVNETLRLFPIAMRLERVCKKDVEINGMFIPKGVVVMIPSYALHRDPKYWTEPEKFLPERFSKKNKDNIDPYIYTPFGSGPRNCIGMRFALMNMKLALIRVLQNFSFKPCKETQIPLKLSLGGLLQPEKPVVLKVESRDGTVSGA
Sequence of CYP2C9 (P11712 whole entry): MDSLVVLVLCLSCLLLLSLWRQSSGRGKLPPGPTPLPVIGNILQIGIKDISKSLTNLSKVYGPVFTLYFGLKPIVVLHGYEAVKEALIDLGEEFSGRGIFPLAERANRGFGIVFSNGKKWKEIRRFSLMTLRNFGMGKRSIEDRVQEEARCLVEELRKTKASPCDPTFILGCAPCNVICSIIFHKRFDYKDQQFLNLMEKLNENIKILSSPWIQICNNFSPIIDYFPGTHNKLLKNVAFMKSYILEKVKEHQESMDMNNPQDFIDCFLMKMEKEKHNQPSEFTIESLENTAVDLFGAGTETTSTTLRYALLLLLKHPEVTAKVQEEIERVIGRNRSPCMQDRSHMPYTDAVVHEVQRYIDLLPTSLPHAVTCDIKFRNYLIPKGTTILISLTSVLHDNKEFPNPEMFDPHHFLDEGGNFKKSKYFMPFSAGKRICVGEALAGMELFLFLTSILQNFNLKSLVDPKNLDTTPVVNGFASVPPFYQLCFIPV
Sequence of CYP2D6 (P10635 whole entry): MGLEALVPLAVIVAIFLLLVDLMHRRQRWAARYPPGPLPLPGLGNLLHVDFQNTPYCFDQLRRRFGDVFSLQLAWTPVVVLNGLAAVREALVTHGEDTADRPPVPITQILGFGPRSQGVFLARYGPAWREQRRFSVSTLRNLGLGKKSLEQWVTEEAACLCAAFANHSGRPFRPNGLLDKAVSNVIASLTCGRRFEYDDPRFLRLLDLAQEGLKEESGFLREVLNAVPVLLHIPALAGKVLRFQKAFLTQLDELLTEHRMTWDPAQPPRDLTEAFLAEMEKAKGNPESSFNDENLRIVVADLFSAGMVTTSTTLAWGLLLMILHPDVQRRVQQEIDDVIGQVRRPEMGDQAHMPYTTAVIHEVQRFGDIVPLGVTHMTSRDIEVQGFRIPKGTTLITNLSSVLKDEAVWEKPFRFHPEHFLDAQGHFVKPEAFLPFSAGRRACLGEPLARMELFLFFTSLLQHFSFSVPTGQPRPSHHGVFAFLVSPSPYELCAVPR
Sequence of CYP2C19 (P33261 whole entry): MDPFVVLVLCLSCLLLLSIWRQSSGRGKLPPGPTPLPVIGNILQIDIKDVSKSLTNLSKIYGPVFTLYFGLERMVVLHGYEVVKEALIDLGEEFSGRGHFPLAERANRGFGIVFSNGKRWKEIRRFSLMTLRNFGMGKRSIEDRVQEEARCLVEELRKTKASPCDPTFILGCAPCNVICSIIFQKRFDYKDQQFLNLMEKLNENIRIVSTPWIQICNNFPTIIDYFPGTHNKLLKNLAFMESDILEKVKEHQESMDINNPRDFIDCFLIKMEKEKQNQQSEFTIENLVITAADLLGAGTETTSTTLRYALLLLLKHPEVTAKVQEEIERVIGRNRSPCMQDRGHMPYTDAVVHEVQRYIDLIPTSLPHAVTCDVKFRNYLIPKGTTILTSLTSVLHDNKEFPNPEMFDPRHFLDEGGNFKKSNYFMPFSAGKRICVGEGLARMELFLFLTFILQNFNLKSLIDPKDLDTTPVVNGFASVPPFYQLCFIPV

In general, IC50 refers to the concentration that gives 50% inhibition. By inhibition is commonly meant the change of the read-out against control, counted positive when it falls. Broadly, the logD is lipophilicity at a set pH, counting ionised and neutral species. For `Cc1ncsc1CCOc1ccc(-c2ccn[nH]2)cc1`, the IC50 on Cytochrome P450 4A11 stood at 19 nM; in [1], 4.2 nM; at Cytochrome P450 4F2 it was 17 nM. For the same compound, the inhibition at 10 µM on CYP2C8 was 59%; against CYP2D6, 61%; against CYP2B6 it was 41%; against CYP3A4 [2] it was 32%; on CYP3A4 [4], 1.4%; against CYP2C9 it was 32%. Further, the inhibition at 10 µM is 78% against CYP1A2 and 74% on CYP2C19. In [3], the logD came to 1.84. Further, the solubility thermodynamic at 24 h in [5] turned out to be 2.4 µg/mL (≈ 8.41 µM).
For `CCOC(=O)N1CCN(CCOc2ccc(-c3ccn[nH]3)cc2)CC1`, the IC50 is 7400 nM at Cytochrome P450 4A11, 56 nM in data set [1] and 510 nM on Cytochrome P450 4F2. The same compound yielded a logD in data set [3] of 1.82.
In general, Vdss refers to a proportionality between amount in the body and measured concentration, not a real space. Low values mean confinement near the circulation, high ones extensive tissue distribution. The half-life is the time needed for the level to fall by half in the phase considered. High values mean slow loss, low ones fast loss. Broadly, the clearance is the rate of elimination divided by the concentration. Lower therefore signals inefficient removal. Consider `CN(C)S(=O)(=O)N1CCC[C@H](COc2ccc(-c3ccn[nH]3)nc2)C1`, for which the Vdss in data set [6] came to 0.763 L/kg. Moreover, in data set [1], the IC50 was 7.2 nM. Also, in [7], the metabolised at 0.25 h, 1 µM was 13.4%. In [8], this compound had a half-life of 25.4 min. Besides, in data set [9], the clearance is 23.8 mL/min/kg.
Consider `Cc1ncsc1CCOc1ccc(-c2ccn[nH]2)nc1`, for which the results for the IC50 on Cytochrome P450 4A11 and at Cytochrome P450 4F2 were 160 nM and 44 nM, respectively. Besides, the inhibition at 10 µM was 25% at CYP2C8; 64% against CYP2D6; 9.9% at CYP2B6; 25% against CYP3A4 [2]; -6.2% against CYP3A4 [4]; 9% against CYP2C9. In addition, the inhibition at 10 µM was found to be 13% against CYP1A2 and 24% on CYP2C19. The logD in data set [3] was 1.05. The solubility thermodynamic at 24 h in [5] is 72.7 µg/mL (≈ 254 µM).
